Assay results published in the NIST ThermoML archive (doi:10.1021/je060107n).
Numbers after ± are expanded uncertainties.

Test: mn = molality of the nth substance listed, in mol/kg
Settings: 101 kPa, Liquid; for speed of sound: Linear variable-path acoustic interferometer; for viscosity: Capillary tube (Ostwald / Ubbelohde) method

O=[N+]([O-])[O-].O=[N+]([O-])[O-].[Mg+2] [magnesium nitrate] + O
Settings | speed of sound, 283.15 K [m/s] | speed of sound, 288.15 K [m/s] | speed of sound, 293.15 K [m/s] | viscosity, 288.15 K [mPa·s] | viscosity, 293.15 K [mPa·s]
m1 = 0.0145 | 1449.2 ± 1.8 | 1471.7 ± 1.9 | 1484.3 ± 1.9 | 1.164 ± 0.016 | 1.021 ± 0.014
m1 = 0.0528 | 1458.5 ± 1.9 | 1477.1 ± 1.9 | 1486.7 ± 1.9 | 1.18 ± 0.016 | 1.038 ± 0.014
m1 = 0.2491 | 1470.7 ± 1.9 | 1487.6 ± 1.9 | 1501.9 ± 1.9 | 1.244 ± 0.017 | 1.092 ± 0.015
m1 = 0.3405 | 1475.6 ± 1.9 | 1491.5 ± 1.9 | 1507 ± 1.9 | – | –
m1 = 0.5931 | – | – | – | 1.367 ± 0.018 | 1.209 ± 0.016
m1 = 0.6173 | 1503.7 ± 1.9 | 1517.8 ± 1.9 | 1530.1 ± 1.9 | – | –
m1 = 0.896 | 1529 ± 1.9 | 1541.2 ± 1.9 | 1553.1 ± 1.9 | – | –
m1 = 0.9898 | 1538.8 ± 1.9 | 1550.4 ± 1.9 | 1561.5 ± 1.9 | 1.554 ± 0.021 | 1.378 ± 0.018
m1 = 1.262 | 1563.1 ± 1.9 | 1573.8 ± 1.9 | 1582.5 ± 1.9 | 1.727 ± 0.023 | 1.53 ± 0.02
m1 = 1.525 | 1587.6 ± 1.9 | 1596.3 ± 1.9 | 1604.4 ± 1.9 | – | –
m1 = 1.827 | 1617.9 ± 1.9 | 1625.4 ± 1.9 | 1631.9 ± 1.9 | 2.098 ± 0.028 | 1.859 ± 0.025
m1 = 2.131 | 1645.2 ± 1.9 | 1650.6 ± 1.9 | – | 2.33 ± 0.031 | 2.064 ± 0.027
m1 = 2.493 | 1675.2 ± 2 | 1677.8 ± 2 | – | – | –
m1 = 2.584 | – | – | – | 2.821 ± 0.038 | 2.471 ± 0.033
m1 = 2.793 | 1700.3 ± 2 | 1703.5 ± 2 | – | – | –
m1 = 3.096 | – | – | – | 3.408 ± 0.046 | 3.002 ± 0.04
m1 = 3.118 | 1725.7 ± 2 | 1727.3 ± 2 | – | – | –
m1 = 3.17 | 1734.2 ± 2 | 1735.3 ± 2 | – | – | –
m1 = 3.329 | – | – | – | 3.754 ± 0.051 | 3.308 ± 0.044
m1 = 3.501 | 1754.9 ± 2 | 1755.4 ± 2 | – | – | –
m1 = 3.704 | – | – | – | 4.345 ± 0.059 | 3.807 ± 0.051
m1 = 3.757 | 1771.9 ± 2 | 1771.3 ± 2 | – | – | –
m1 = 4.039 | – | – | – | 5.051 ± 0.069 | 4.432 ± 0.059
m1 = 4.051 | 1790.4 ± 2 | 1789.6 ± 2 | – | – | –
m1 = 4.285 | 1806.3 ± 2.1 | 1804.5 ± 2.1 | – | – | –
m1 = 4.403 | 1813.5 ± 2.1 | 1810.8 ± 2.1 | – | – | –
m1 = 4.728 | – | – | – | 7.067 ± 0.096 | 6.098 ± 0.082
m1 = 4.883 | 1847.2 ± 2.1 | 1842.3 ± 2.1 | – | – | –
m1 = 4.907 | – | – | – | 7.798 ± 0.1 | 6.799 ± 0.092
